Reference: US10028970B2, “Composition comprising cashew apple extract” (NATUREX, priority 2011, dated 2018)

Assay: Thermal degradation kinetics of CAE in water at 100° C. (HPLC)
Assay type: physicochemical
Details: CAE 50 g/L in deionised water
Procedure: The thermal degradation kinetics of CAE in water was investigated at 100° C. CAE was dissolved in deionised water at the concentration of 50 g/L and the solution was well homogenized. Volumes of 4 ml of this solution were placed in glass tubes, sealed, and placed in a mineral oil bath at 100° C. At predetermined intervals: 0, 10, 20, 30, 45, 60, 90, and 120 min, sample tubes were removed from the mineral oil bath and rapidly cooled in ice. For the analysis, 1 ml of each sample was mixed with 4 ml of HPLC grade methanol, homogenized, and filtrated on 0.45 μm HPLC filter. Then, 20 μL of the solution was analyzed in HPLC. The phytochemical composition of the samples was measured by reversed phase liquid chromatography using a C-18 column (ACE, 250×4.6 mm, 5 μm) at 280 nm. The areas under peak of the major components of CAE were measured in the different samples representing different time points of at 100° C.

- incubation time after which the amount in the extract was divided by 2: 30 min
SMILES: O=C(/C=C/c1ccccc1)O[C@@H]1O[C@H](CO)[C@@H](O)[C@H](O)[C@H]1O (relative stereo) [1-O-trans-cinnamoyl-beta-D-glucoside, 1-O-trans-cinnamoyl-beta-D-glucopyranose]
- amount remaining in the extract after 120 min of incubation (120 min): almost completely disappeared from the extract
